Assays:
Format in all cases: functional
Rattus norvegicus [1] = assay: Anti-inflammatory activity against carageenaan-induced paw edema in Rattus norvegicus albino (rat) at 100 mg/kg, po administered 1 hr prior to carageenaan-challenge measured up to 3 hr
Rattus norvegicus [2] = assay: Anti-inflammatory activity in Rattus norvegicus albino (rat) assessed as carageenaan-induced paw edema at 100 mg/kg, po administered 1 hr prior to carageenaan-challenge measured at 30 min relative to control (reference value: 30.1%)
Rattus norvegicus [3] = assay: Anti-inflammatory activity in Rattus norvegicus albino (rat) assessed as carageenaan-induced paw edema at 100 mg/kg, po administered 1 hr prior to carageenaan-challenge measured at 180 min relative to control (reference value: 22.3%)
Rattus norvegicus [4] = assay: Anti-inflammatory activity in Rattus norvegicus albino (rat) assessed as carageenaan-induced paw edema at 100 mg/kg, po administered 1 hr prior to carageenaan-challenge measured at 90 min relative to control (reference value: 38.7%)
Rattus norvegicus [5] = assay: Anti-inflammatory activity in Rattus norvegicus albino (rat) assessed as carageenaan-induced paw edema at 100 mg/kg, po administered 1 hr prior to carageenaan-challenge measured at 30 min (reference value: 100%)
Rattus norvegicus [6] = assay: Anti-inflammatory activity in Rattus norvegicus albino (rat) assessed as carageenaan-induced paw edema at 100 mg/kg, po administered 1 hr prior to carageenaan-challenge measured at 120 min (reference value: 100%)
Rattus norvegicus [7] = assay: Anti-inflammatory activity in Rattus norvegicus albino (rat) assessed as carageenaan-induced paw edema at 100 mg/kg, po administered 1 hr prior to carageenaan-challenge measured at 90 min (reference value: 100%)

Cc1n[nH]c2nnc3nc(-c4ccccc4)[nH]c3c12
Activity (Rattus norvegicus [1]): 30% | Activity (Rattus norvegicus [2]): 14.1% | Activity (Rattus norvegicus [3]): 14.9% | Activity (Rattus norvegicus [4]): 23.4%

Cc1n[nH]c2nnc3nc(/C=C\c4ccccc4)[nH]c3c12
Activity (Rattus norvegicus [1]): 35% | Activity (Rattus norvegicus [2]): 3.9% | Activity (Rattus norvegicus [3]): 0.4% | Activity (Rattus norvegicus [4]): 6.2%

Cc1n[nH]c2nnc3nc(-c4ccccc4C(=O)O)[nH]c3c12
Activity (Rattus norvegicus [1]): 41% | Activity (Rattus norvegicus [2]): 15.1% | Activity (Rattus norvegicus [3]): 20.6% | Activity (Rattus norvegicus [4]): 23.3%

Cc1n[nH]c2nnc3nc(CCC(=O)O)[nH]c3c12
Activity (Rattus norvegicus [1]): 33% | Activity (Rattus norvegicus [2]): 6.5% | Activity (Rattus norvegicus [3]): 21.4% | Activity (Rattus norvegicus [4]): 18.4%

Cc1n[nH]c2nnc3nc(CCCCC(=O)O)[nH]c3c12
Activity (Rattus norvegicus [1]): 31% | Activity (Rattus norvegicus [2]): 33.9% | Activity (Rattus norvegicus [3]): 33.6% | Activity (Rattus norvegicus [4]): 46.5%

CC(C)Cc1ccc(C(C)C(=O)O)cc1 (centres undefined) [IBUPROFEN]
Activity (Rattus norvegicus [1]): 49% | Activity (Rattus norvegicus [5]): 101% | Activity (Rattus norvegicus [6]): 11.6% | Activity (Rattus norvegicus [7]): 108%

— ChEMBL document CHEMBL3044547, “2-Substituted-8-methyl-3,6-dihydroimidazo[4,5-c]pyrazolo[3,4-e]pyridazine as an anti-inflammatory agent” (2011)
